The text below walks through data of patent US20120122870A1, “Treatment Of Ischemia-Reperfusion Injury” (MUSC FOUNDATION FOR RESEARCH DEVELOPMENT, priority 2009, published 2012).

T1 sequence (Q9NYA1 whole entry): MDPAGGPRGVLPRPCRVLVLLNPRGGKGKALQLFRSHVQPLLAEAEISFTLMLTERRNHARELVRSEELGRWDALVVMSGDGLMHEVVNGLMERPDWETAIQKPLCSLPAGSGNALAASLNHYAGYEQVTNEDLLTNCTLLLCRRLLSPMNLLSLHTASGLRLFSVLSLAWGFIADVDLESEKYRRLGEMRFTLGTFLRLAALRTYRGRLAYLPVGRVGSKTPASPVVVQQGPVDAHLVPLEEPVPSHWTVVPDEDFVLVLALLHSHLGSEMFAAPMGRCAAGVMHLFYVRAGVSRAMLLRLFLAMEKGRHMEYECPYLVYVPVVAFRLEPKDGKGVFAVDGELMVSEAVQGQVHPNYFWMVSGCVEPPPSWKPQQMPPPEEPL

The assay has as its target T1, recombinant human SK (Homo sapiens, UniProt Q9NYA1).
T1 construct: GST (glutathione-S-transferase) (N); made in house; host or cells: bacteria (pGEX bacterial expression vector)
Nature of the assay: Recombinant human SK activity assay ([3H]sphingosine to [3H]S1P). It is filed as biochemical. The following applies: Human SK incubated with 6 μg/mL of compound; percentage of SK activity inhibited. How it is done:
SK activity is measured by incubation of the recombinant SK with [^3H]sphingosine and 1 mM ATP under defined conditions, followed by extraction of the assay mixture with chloroform:methanol under basic conditions. […] Radioactivity in aliquots of the aqueous phase is then quantified as a measure of [^3H]S1P formation.
Human SK was incubated with 6 μg/mL of the indicated compounds, and then assayed for activity as described above. Values in the column labeled “Recombinant SK (% inhibition)” represent the percentage of SK activity that was inhibited. MDA-MB-231 cells were incubated with 20 μg/mL of the indicated compounds and then assayed for endogenous SK activity as indicated above. Values in the column labeled “Cellular S1P (% inhibition)” represent the percentage of S1P production that was inhibited. Additionally, MDA-MB-231 cells were treated with varying concentration of certain compounds and the amount of S1P produced by the cells was determined. Values in the column labeled “Cellular S1P IC50 (μM)” represent the concentration of compound required to inhibit the production of S1P by 50%. ND=not determined.
For the compound `O=C(NCc1ccc(F)c(Cl)c1)C12CC3CC(C1)CC(c1ccc(Cl)cc1)(C3)C2` [A23, 3-(4-Chloro-phenyl)-adamantane-1-carboxylic acid 3-chloro-4-fluoro-benzylamide], the inhibition (commonly how much of the control response was suppressed) at 6 µg/mL was determined as 0%.
`O=C(NCc1ccc(F)c(C(F)(F)F)c1)C12CC3CC(C1)CC(c1ccc(Cl)cc1)(C3)C2` [A24, 3-(4-Chloro-phenyl)-adamantane-1-carboxylic acid 4-fluoro-3-trifluoromethyl-benzylamide]: the inhibition at 6 µg/mL amounted to 20%.
In the case of `O=C(NCc1ccc(F)cc1Cl)C12CC3CC(C1)CC(c1ccc(Cl)cc1)(C3)C2` [A25, 3-(4-Chloro-phenyl)-adamantane-1-carboxylic acid 2-chloro-4-fluoro-benzylamide], the inhibition at 6 µg/mL amounted to 47%.
On the same count and under the same terms, to `O=C(NCc1ccc(Cl)c(C(F)(F)F)c1)C12CC3CC(C1)CC(c1ccc(Cl)cc1)(C3)C2` [A26, 3-(4-Chloro-phenyl)-adamantane-1-carboxylic acid 4-chloro-3-trifluoromethyl-benzylamide] belongs 36%; to `NCc1c(Cl)c(Cl)c(Cl)c(CNC(=O)C23CC4CC(C2)CC(c2ccc(Cl)cc2)(C4)C3)c1Cl` [A27, 3-(4-Chloro-phenyl)-adamantane-1-carboxylic acid 3-aminomethyl-2,4,5,6-tetrachloro-benzylamide], 50%.
Regarding `CC(NC(=O)C12CC3CC(C1)CC(c1ccc(Cl)cc1)(C3)C2)c1ccc(Cl)cc1` (stereo not shown) [A28, 3-(4-Chloro-phenyl)-adamantane-1-carboxylic acid [1-(4-chloro-phenyl)-ethyl]-amide], the inhibition at 6 µg/mL stood at 6%.
Still for that read-out and setting: the value for `CS(=O)(=O)c1ccc(CNC(=O)C23CC4CC(C2)CC(c2ccc(Cl)cc2)(C4)C3)cc1` [A30, 3-(4-Chloro-phenyl)-adamantane-1-carboxylic acid 4-methanesulfonyl-benzylamide] was 1%; that for `CN(C)c1ccc(CNC(=O)C23CC4CC(C2)CC(c2ccc(Cl)cc2)(C4)C3)cc1` [A31, 3-(4-Chloro-phenyl)-adamantane-1-carboxylic acid 4-dimethylamino-benzylamide] was 74%.
On the same count and under the same terms, to `O=C(NCc1ccc(OC(F)(F)F)cc1)C12CC3CC(C1)CC(c1ccc(Cl)cc1)(C3)C2` [A32, 3-(4-Chloro-phenyl)-adamantane-1-carboxylic acid 4-trifluoromethoxy-benzylamide] belongs 17%; to `O=C(NCc1cccc(OC(F)(F)F)c1)C12CC3CC(C1)CC(c1ccc(Cl)cc1)(C3)C2` [A33, 3-(4-Chloro-phenyl)-adamantane-1-carboxylic acid 3-trifluoromethoxy-benzylamide], 10%.
For the compound `O=C(NCc1ccc(Oc2ccccc2)cc1)C12CC3CC(C1)CC(c1ccc(Cl)cc1)(C3)C2` [A34, 3-(4-Chloro-phenyl)-adamantane-1-carboxylic acid 4-phenoxy-benzylamide], the “Recombinant SK (% inhibition)” value is recorded as 0%.
In the case of `O=C(NCc1ccc(O)c(O)c1)C12CC3CC(C1)CC(c1ccc(Cl)cc1)(C3)C2` [A36, 3-(4-Chloro-phenyl)-adamantane-1-carboxylic acid 3,4-dihydroxy-benzylamide], the inhibition at 6 µg/mL stood at 37%.
Still for that read-out and setting: to `COc1ccc(CCNC(=O)C23CC4CC(C2)CC(c2ccc(Cl)cc2)(C4)C3)cc1Br` [A42, 3-(4-Chloro-phenyl)-adamantane-1-carboxylic acid [2-(3-bromo-4-methoxy-phenyl)-ethyl]-amide] belongs 5%; to `O=C(NCCc1ccc2c(c1)OCO2)C12CC3CC(C1)CC(c1ccc(Cl)cc1)(C3)C2` [A45, 3-(4-Chloro-phenyl)-adamantane-1-carboxylic acid (2-benzo[1,3]dioxol-5-yl-ethyl)-amide], 64%; to `O=C(NCCc1cccc(Oc2ccccc2)c1)C12CC3CC(C1)CC(c1ccc(Cl)cc1)(C3)C2` [A46, 3-(4-Chloro-phenyl)-adamantane-1-carboxylic acid [2-(3-phenoxy-phenyl)-ethyl]-amide], 4%.
The same measure, in the same setting: the value for `O=C(NCCc1ccc(Oc2ccccc2)cc1)C12CC3CC(C1)CC(c1ccc(Cl)cc1)(C3)C2` [A47, 3-(4-Chloro-phenyl)-adamantane-1-carboxylic acid [2-(4-phenoxy-phenyl)-ethyl]-amide] was 26%.
On the same count and under the same terms, the value for `O=C(NCc1ccc(-c2ccccc2)cc1)C12CC3CC(C1)CC(c1ccc(Cl)cc1)(C3)C2` [A49, 3-(4-Chloro-phenyl)-adamantane-1-carboxylic acid (biphenyl-4-ylmethyl)-amide] was 33%; that for `CC(C)(C)NCCCNC(=O)C12CC3CC(C1)CC(c1ccc(Cl)cc1)(C3)C2` [A53, 3-(4-Chloro-phenyl)-adamantane-1-carboxylic acid (3-tert-butylamino-propyl)-amide] was 52%; that for `O=C(NCCCN1CCCC1)C12CC3CC(C1)CC(c1ccc(Cl)cc1)(C3)C2` [A54, 3-(4-Chloro-phenyl)-adamantane-1-carboxylic acid (3-pyrrolidin-1-yl-propyl)-amide] was 95%.
In the case of `O=C1CCCN1CCCNC(=O)C12CC3CC(C1)CC(c1ccc(Cl)cc1)(C3)C2` [A55, 3-(4-Chloro-phenyl)-adamantane-1-carboxylic acid [3-(2-oxo-pyrrolidin-1-yl)-propyl]-amide], the inhibition at 6 µg/mL turned out to be 8%.
For `O=C(NCCN1CCNCC1)C12CC3CC(C1)CC(c1ccc(Cl)cc1)(C3)C2` [A59, 3-(4-Chloro-phenyl)-adamantane-1-carboxylic acid (2-piperazin-1-yl-ethyl)-amide], the inhibition at 6 µg/mL came out at 0%.
The same measure, in the same setting: the value for `O=C(NCCCn1ccnc1)C12CC3CC(C1)CC(c1ccc(Cl)cc1)(C3)C2` [A65, 3-(4-Chloro-phenyl)-adamantane-1-carboxylic acid (3-imidazol-1-yl-propyl)-amide] was 3%; that for `O=C(Nc1nnn[nH]1)C12CC3CC(C1)CC(c1ccc(Cl)cc1)(C3)C2` [A67, 3-(4-Chloro-phenyl)-adamantane-1-carboxylic acid (1H-tetrazol-5-yl)-amide] was 10%; that for `O=C(Nc1ncnc2[nH]cnc12)C12CC3CC(C1)CC(c1ccc(Cl)cc1)(C3)C2` [A73, 3-(4-Chloro-phenyl)-adamantane-1-carboxylic acid (9H-purin-6-yl)-amide] was 53%.
Same read-out and setting: to `FC(F)(F)c1ccc(CNCC23CC4CC(C2)CC(c2ccc(Cl)cc2)(C4)C3)cc1` [A77, [3-(4-Chloro-phenyl)-adamantan-1-ylmethyl]-(4-trifluoromethyl-benzyl)-amine] belongs 27%.
Still for that read-out and setting: the value for `Fc1cc(C(F)(F)F)ccc1CNCC12CC3CC(C1)CC(c1ccc(Cl)cc1)(C3)C2` [A78, [3-(4-Chloro-phenyl)-adamantan-1-ylmethyl]-(2-fluoro-4-trifluoromethyl-benzyl)-amine] was 43%; that for `Fc1ccc(CNCC23CC4CC(C2)CC(c2ccc(Cl)cc2)(C4)C3)cc1C(F)(F)F` [A79, [3-(4-Chloro-phenyl)-adamantan-1-ylmethyl]-(4-fluoro-3-trifluoromethyl-benzyl)-amine] was 19%.
Regarding `FC(F)(F)Oc1ccc(CNCC23CC4CC(C2)CC(c2ccc(Cl)cc2)(C4)C3)cc1` [A80, [3-(4-Chloro-phenyl)-adamantan-1-ylmethyl]-(4-trifluoromethoxy-benzyl)-amine], the inhibition at 6 µg/mL was 5%.
The same measure, in the same setting: to `Clc1ccc(C23CC4CC(CC(CNCCc5cccc(Oc6ccccc6)c5)(C4)C2)C3)cc1` [A81, [3-(4-Chloro-phenyl)-adamantan-1-ylmethyl]-[2-(3-phenoxy-phenyl)-ethyl]-amine] belongs 67%.
Same read-out and setting: the value for `CN1CCC(NCC23CC4CC(C2)CC(c2ccc(Cl)cc2)(C4)C3)CC1` [A82, [3-(4-Chloro-phenyl)-adamantan-1-ylmethyl]-(1-methyl-piperidin-4-yl)-amine] was 75%.
Still for that read-out and setting: the value for `CC(C)(C)NCCCNCC12CC3CC(C1)CC(c1ccc(Cl)cc1)(C3)C2` [A84, N-tert-Butyl-N′-[3-(4-chloro-phenyl)-adamantan-1-ylmethyl]-propane-1,3-diamine] was 84%.
Turning to `Clc1ccc(C23CC4CC(CC(CNCCCN5CCCC5)(C4)C2)C3)cc1` [A85, [3-(4-Chloro-phenyl)-adamantan-1-ylmethyl]-(3-pyrrolidin-1-yl-propyl)-amine], the inhibition at 6 µg/mL is 0%.
On the same count and under the same terms, the value for `CN1CCCC1CCNCC12CC3CC(C1)CC(c1ccc(Cl)cc1)(C3)C2` (stereo not shown) [A86, [3-(4-Chloro-phenyl)-adamantan-1-ylmethyl]-[2-(1-methyl-pyrrolidin-2-yl)-ethyl]-amine] was 6%.
As for `Clc1ccc(C23CC4CC(CC(CNCc5ccncc5)(C4)C2)C3)cc1` [A88, [3-(4-Chloro-phenyl)-adamantan-1-ylmethyl]-pyridin-4-ylmethyl-amine], the inhibition at 6 µg/mL amounted to 1%.
Still for that read-out and setting: to `CC(Nc1ccccc1)C12CC3CC(CC(c4ccccc4)(C3)C1)C2` (stereo not shown) [A93, Phenyl-[1-(3-phenyl-adamantan-1-yl)-ethyl]-amine] belongs 70%.
Still for that read-out and setting: to `CC(NC1CCN(C)CC1)C12CC3CC(CC(C3)C1)C2` (stereo not shown) [A104, (1-Adamantan-1-yl-ethyl)-(1-methyl-piperidin-4-yl)-amine] belongs 0%.
The same measure, in the same setting: to `O=C(/C=C/c1ccc(Cl)cc1)C12CC3CC(C1)CC(c1ccc(Cl)cc1)(C3)C2` [A130, 3-(4-Chloro-phenyl)-1-[3-(4-chloro-phenyl)-adamantan-1-yl]-propenone] belongs 38%.
